Test results: patent US6800247B1, “Deactivants for dust mite allergens” (priority 1997, dated 2004)
Counter-ions that a name gives are not always drawn. Like-named read-outs stand apart in the source and are kept apart here.

Key:
Type in all cases: biochemical
Der-p allergens = molecular target: T1, Der-p allergens (Dermatophagoides pteronyssinus, UniProt P08176); assay: Deactivation of Der-p allergens (ELISA protocol), summary statement
T1 construct: Dust is collected from Hoover™ vacuum cleaner bags and passed through a series of sieves down to 63 microns; from tissue; host or cells: house dust from vacuum cleaner bags, sieved to 63 microns
T1 sequence (P08176 99-320): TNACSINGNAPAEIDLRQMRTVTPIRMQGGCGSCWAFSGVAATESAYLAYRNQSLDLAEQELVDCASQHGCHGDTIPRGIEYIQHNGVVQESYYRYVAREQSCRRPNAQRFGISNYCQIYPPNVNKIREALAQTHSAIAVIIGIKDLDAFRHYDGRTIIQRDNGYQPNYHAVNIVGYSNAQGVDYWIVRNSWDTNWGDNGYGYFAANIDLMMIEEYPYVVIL
Experimental: The test procedure in Examples 1 to 55 is as follows and is known as the ELISA protocol.
(§1) The ELISA protocol for Der-f and Der-p has been developed as follows as a measure of denaturing property for denaturants.
(§2) ELISA Protocol 2 for Der-f and Der-p: Indoor Biotechnologies
(§3) 11 μl of Der-f1 or Der-p1 monoclonal antibody

Der-f allergens [1] = molecular target: T2, Der-f allergens (Dermatophagoides farinae, UniProt P16311); conditions: for Ratio of actives remaining after deactivant treatment over those remaining after tannic acid treatment: Examples 48-55, tested as above and compared with tannic acid
T2 construct: Dust is collected from Hoover™ vacuum cleaner bags and passed through a series of sieves down to 63 microns; from tissue; host or cells: house dust from vacuum cleaner bags, sieved to 63 microns
T2 sequence (P16311 99-321): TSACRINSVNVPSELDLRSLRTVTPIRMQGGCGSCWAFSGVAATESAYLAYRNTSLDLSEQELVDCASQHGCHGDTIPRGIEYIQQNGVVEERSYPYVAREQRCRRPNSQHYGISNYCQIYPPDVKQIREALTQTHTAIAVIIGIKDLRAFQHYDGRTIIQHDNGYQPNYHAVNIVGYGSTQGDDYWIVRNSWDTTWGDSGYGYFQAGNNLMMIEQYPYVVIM
Experimental: as §1
(§4) 1. Dust is collected from Hoover™ vacuum cleaner bags and passed through a series of sieves down to 63 microns.
(§5) 2. Clean petri dishes are labelled with the chemical to be tested (on the base). Three replicates are used for each treatment.
(§6) 3. Filter paper is used to line each dish and 0.2 g of dust is added to each dish onto the filter paper. The lid (or base, as dishes are inverted) is replaced and the dish is shaken to disperse the dust evenly over the filter paper.
(§7) 4. 2% aqueous solutions of deactivant were used except for the silver chloride composite where 0.05% was used instead. Immobilised tannic acid was used as a 1% dispersion. The hydrogenerated hop end was used at the 2% level (in the form of a 10% solution). Water-insoluble deactivants were emulsified with a sorbitone oleate surfactant (i.e. Tween). Hinokitol was used at 0.5% not 2%.
(§8) 5. The dust is sprayed with the corresponding treatment, 2 sprays are required for sufficient coverage (1 spray=1.5 ml).
(§9) 6. Leave uncovered at room temperature, in well aerated room, until filter paper is dry. This can take up to 4 hours.
(§10) 7. Empty dust in epindorfs labelled according to treatment.
(§11) 8. Add 1 ml of 5% Bovine Serum Albumen Phosphate Butter Saline—Tween BSA-PBS-T to each epindorf (5 times the weight of dust) (20 ml of BSA-PBS-T=1 g of BSA in 20 ml of PBS-T).
(§12) 9. Leave overnight in a refrigerator.
(§13) 10. Centrifuge for 5 minutes at 13,000 rpm.
(§14) 11. Decant the supernatant into a new epindorf labelled according to treatment.
(§15) 12. Centrifuge again for 5 minutes at 13,000 rpm.
(§16) 13. Make up dilutions of 1:10 and 1:100 by adding 100 μl of neat solution to 900 μl of 1% BSA-PBS-T (1:10). This is repeated using 100 μl of 1:10 dilution and add to 900 μl of 1% BSA-PBS-T for 1:100 dilution.
as §2
(§17) 1. Prepare samples and dilutions as in protocol
(§18) 2. Prepare 500 ml of 50 mM carbonate/bicarbonate buffer by dissolving 0.795 g Na2CO3 and 1.465 g NaHCO3 in 500 ml of distilled water. Check the pH is at 9.6. (This solution is kept in the refrigerator in a conical flask).
(§19) 11 ml of carbonate/bicarbonate buffer is added to the dispensing tray.
as §3
(§20) (Stored in freezer, epindorf in use is in the refrigerator) is added to the buffer. To ensure that all the antibody is removed from the tip, wash out the pipette tip by sucking up and down I the buffer solution, gently stirring to mix thoroughly.
(§21) 4. Pipette 100 μl of the antibody solution into each well of the microtiter plate, cover with a plate sealer and leave overnight at 4° C.
(§22) 5. Empty the plate by quickly inverting it over the sink, then dry by banging on a stack of paper towels.
(§23) 6. Add 200 μl of wash buffer to each well: PBS/0/05% tween (PBS-T)
(§24) 7. Repeat stages 5 and 6 once more (making a total of 2 washes).
(§25) 8. Make sure all the wells are dry, then add 100 μl of 1% BSA-PBS-T. Replace the plate sealer and incubate for 1 hour at room temperature*.
(§26) 9. Repeat steps 5 to 7 (2 washes).
(§27) This is mixed thoroughly.
(§28) 11. Add 100 μl aliquots of the allergen sample to the plate along with the standard allergen samples for the reference curve in duplicate. The standards usually go in the first two columns on the left hand side, with the least concentrated on top. Incubate for 1 hour.
(§29) 12. Follow stages 5 to 6, completing a total of 5 washes.
(§30) 13. Pour 11 ml of 1% BSA-PBS-T(0.11 g of BSA to 11 ml of PBS-T) to the dispensing tray. Add 11 μl of the biotinylated monoclonal antibody (refrigerator) and mix thoroughly.
(§31) 14. Pipette 100 μl into each well and incubate for 1 hour at room temperature.
(§32) 15. Empty plate and wash as described in stage 12. (5 washes).
(§33) 16. Add 11 μl of Streptavidin (freezer) to 11 ml of 1%BSA-PBS-T. Pipette 100 μl into each well and incubate for 30 minutes. Reserve any remaining solution in a vial.
(§34) 17. Empty plate and wash as described in stage 12 (5 washes).

Der-f allergens [2] = molecular target: T2, Der-f allergens; set-up: Amount of Allergen remaining active after deactivant treatment: unit not given here
Experimental: as §1, §4, §5, §6, §7, §8, §9, §10, §11, §12, §13, §14, §15, §16, §2, §17, §18, §19, §3, §20, §21, §22, §23, §24, §25, §26, §27, §28, §29, §30, §31, §32, §33, §34

[3] = Der-f, compared with vacuuming only, no deactivant, 2% deactivant (AgCl composite 0.05%, immobilised tannic acid 1%, hinokitol 0.5%)
[4] = Der-f, 0.2 g sieved house dust sprayed with 2% aqueous deactivant (AgCl composite 0.05%, immobilised tannic acid 1%, hinokitol 0.5%)

For O=CCCCC=O [Glutaraldehyde, qlutaraldehyde], the “Effectiveness against Der-p allergens” value (Der-p allergens) was “effective against Der-p allergens only”, the “Amount of active Allergen remaining after deactivant treatment” value (shortened to “Amount of active Allergen remaining”) (Der-f allergens [1]; [3]) was 816 and the “Ratio of actives remaining after deactivant treatment over those remaining after tannic acid treatment” value (shortened to “Ratio of actives remaining”) (Der-f allergens [1]) was 1.5.

CCCOCC(C)O (centres unmarked) [1-propoxy-propanol-2] was tested, and the “Ratio of remaining active allergen after Deactivant/Tannic Acid Treatment” value (Der-f allergens [2]) was 2.194, the “Amount of Allergen remaining active after deactivant treatment” value (“Amount of Allergen remaining active” for short) (Der-f allergens [2]; [4]) was 3950 and the “Amount of active Allergen remaining” value (Der-f allergens [1]; [3]) was 1233.

N.N.O=S(=O)(O)O [Ammonium sulphate, ammonium sulphate] was tested, and the “Amount of Allergen remaining active” value (Der-f allergens [2]) was 2750, the “Ratio of remaining active allergen after Deactivant/Tannic Acid Treatment” value (Der-f allergens [2]) was 1.618 and the “Amount of active Allergen remaining” value (Der-f allergens [1]) was 2325.

Cc1ccc(C(C)C)c(O)c1 [Thymol, 6-isopropyl-m-cresol] was tested, and the “Ratio of remaining active allergen after Deactivant/Tannic Acid Treatment” value (Der-f allergens [2]) was 0.523, the “Amount of Allergen remaining active” value (Der-f allergens [2]; [4]) was 725 and the “Amount of active Allergen remaining” value (Der-f allergens [1]; [3]) was 1500. The “Ratio of actives remaining” value (Der-f allergens [1]) was 4.0.

For O=C1c2ccccc2C(=O)c2ccccc21 [Anthraquinone sodium salt, the sodium salt of anthraquinone], the “Ratio of remaining active allergen after Deactivant/Tannic Acid Treatment” value (Der-f allergens [2]) was 0.765 and the “Amount of Allergen remaining active” value (Der-f allergens [2]; [4]) was 1530.

With CCCCCCCCCCCCCCCC[N+](C)(C)C.[Cl-] [hexadecyltrimethylammonium chloride] the “Ratio of remaining active allergen after Deactivant/Tannic Acid Treatment” value (Der-f allergens [2]) was 2.264, the “Amount of Allergen remaining active” value (Der-f allergens [2]; [4]) was 4075 and the “Amount of active Allergen remaining” value (Der-f allergens [1]; [3]) was 2863.

CCCCC(CC)COC(=O)CC(C(=O)OCC(CC)CCCC)S(=O)(=O)[O-].[Na+] (centres unmarked) [Aerosol OT] was tested, and the “Ratio of remaining active allergen after Deactivant/Tannic Acid Treatment” value (Der-f allergens [2]) was 1.298, the “Amount of Allergen remaining active” value (Der-f allergens [2]; [4]) was 1525 and the “Amount of active Allergen remaining” value (Der-f allergens [1]; [3]) was 4494.

C=CCc1cc(OC)c2c(c1OC)OCO2 [Parsley Camphor] was tested, and the “Amount of Allergen remaining active” value (Der-f allergens [2]; [4]) was 1225, the “Ratio of remaining active allergen after Deactivant/Tannic Acid Treatment” value (Der-f allergens [2]; Der-f, ratio below 1 = better than tannic acid) was 0.883 and the “Amount of active Allergen remaining” value (Der-f allergens [1]; [3]) was 2581.

For O=C(NCO)N(CO)C1(CO)C(=O)NC(=O)N1CO (centres unmarked) [Germall II, diazolidinylurea], the “Ratio of remaining active allergen after Deactivant/Tannic Acid Treatment” value (Der-f allergens [2]) was 0.685, the “Amount of Allergen remaining active” value (Der-f allergens [2]; [4]) was 950 and the “Ratio of actives remaining” value (Der-f allergens [1]) was 1.5.

With CC(C)c1cccc(=O)c(O)c1 [Hinokitol, β-thujaplicin] the “Ratio of remaining active allergen after Deactivant/Tannic Acid Treatment” value (Der-f allergens [2]) was 1.533, the “Amount of Allergen remaining active” value (Der-f allergens [2]; [4]) was 3065 and the “Amount of active Allergen remaining” value (Der-f allergens [1]; [3]) was 2058.

O=C1O[C@H]([C@@H](O)CO)C(O)=C1O [L-Ascorbic Acid, L-ascorbic acid] was tested, and the “Ratio of remaining active allergen after Deactivant/Tannic Acid Treatment” value (Der-f allergens [2]) was 1.333, the “Amount of Allergen remaining active” value (Der-f allergens [2]; [4]) was 2000 and the “Amount of active Allergen remaining” value (Der-f allergens [1]; [3]) was 1438.

For aluminium chlorohydrate, the “Ratio of remaining active allergen after Deactivant/Tannic Acid Treatment” value (Der-f allergens [2]) was 2.233, the “Amount of Allergen remaining active” value (Der-f allergens [2]; [4]) was 1675 and the “Amount of active Allergen remaining” value (Der-f allergens [1]; [3]) was 978.

With CN1CCCC1=O [N-methyl pyrrolidone, N-methylpyrrolidone] the “Ratio of remaining active allergen after Deactivant/Tannic Acid Treatment” value (Der-f allergens [2]) was 1.362, the “Amount of Allergen remaining active” value (Der-f allergens [2]; [4]) was 1600 and the “Ratio of actives remaining” value (Der-f allergens [1]) was 4.0.

With O=C([O-])CS.[K+] [Potassium thioglycolate, potassium thioglycolate] the “Effectiveness against Der-p allergens” value (Der-p allergens) was “effective against Der-p allergens only” and the “Amount of active Allergen remaining” value (Der-f allergens [1]; [3]) was 3092.

In the case of NC(N)=O [Urea, urea], the “Ratio of remaining active allergen after Deactivant/Tannic Acid Treatment” value (Der-f allergens [2]) is reported as 2.500 and the “Amount of Allergen remaining active” value (Der-f allergens [2]; [4]) is reported as 3750.

For O=C1C=CC(=O)O1 [Maleic anhydride, maleic anhydride], the “Ratio of remaining active allergen after Deactivant/Tannic Acid Treatment” value (Der-f allergens [2]) was 0.875, the “Amount of Allergen remaining active” value (Der-f allergens [2]; [4]) was 1312.5 and the “Amount of active Allergen remaining” value (Der-f allergens [1]; [3]) was 783. The “Ratio of actives remaining” value (Der-f allergens [1]) was 1.0.

With N=C(NCCCCCCNC(=N)NC(=N)Nc1ccc(Cl)cc1)NC(=N)Nc1ccc(Cl)cc1 [Chlorohexidine, 1,1′-hexamethylenebis [5-(4-chlorophenyl)]-biguanide] the “Ratio of remaining active allergen after Deactivant/Tannic Acid Treatment” value (Der-f allergens [2]) was 0.991, the “Amount of Allergen remaining active” value (Der-f allergens [2]; [4]) was 1412.5 and the “Amount of active Allergen remaining” value (Der-f allergens [1]; [3]) was 2281. For the same molecule, the “Ratio of actives remaining” value (Der-f allergens [1]) was 3.0.

With cyclodextrin the “Ratio of remaining active allergen after Deactivant/Tannic Acid Treatment” value (Der-f allergens [2]) was 2.265 and the “Amount of Allergen remaining active” value (Der-f allergens [2]; [4]) was 3850.
